In patent US20020031795A1, “Nitrocoumarins for detecting all micro-organisms” (priority 1998, published 2002):

Legend:
[1] = test system: Enterobacteriaceae, non-fermenting Gram-positive bacilli, Staphylococcus spp., Streptococcus spp., Listeria spp. and yeasts; experiment: Reduction of nitrocoumarin derivatives by most microorganisms (results not presented); format: cell-based
[2] = test system: E. coli (NCTC strain 10418); experiment: Fluorescent signal generated by E. coli reducing nitrocoumarins (nitroaryl reductase activity); format: cell-based, Escherichia coli
Method: A sample of the 7-nitrocoumarin derivative is dissolved in 4 ml of hot, distilled water. The mass dissolved to make the stock solution is such that the final concentration of the compound in the assay is 0.105 mmol/l. This solution is added to 96 ml of Mueller-Hinton broth and the mixture is sterile-filtered.
(§1) The E. coli was grown for 24 hours at 35° C. on Columbia agar supplemented with sheep blood. The bacteria were then resuspended in sterile, distilled water and their density was adjusted to 0.5 on the MacFarland scale (i.e. about 10^8 cells/ml). This suspension was then diluted 100-fold in sterile Mueller-Hinton broth (i.e. to a final density of about 10^6 cells/ml).
(§2) Fifty microliters of each nitrocoumarin solution plus 50 μl of bacterial suspension were then added to the wells of a microtiter plate. The plates were incubated at 35° C. and the optical density and fluorescence of each well was read every 30 min for a total of 4 hours. Optical density (690 nm) readings were made using an Anthos 2001 spectrophotometer (Labtech International Limited), and fluorescence (excitation at 365 nm and emission at 440 nm) readings were made on a Biolite F1 2001 fluorometer (Labtech International Limited).
The effect of the concentration of 7-nitrocoumarin-3-carboxylic acid on the sensitivity of the assay to detect E. coli (NCTC strain 10418) was investigated at concentrations of the indicator ranging from 0 to 0.262 mmol/l. All other conditions were identical to those described in section A above.

[3] = test system: sixteen different microorganisms; experiment: Growth indicator test on sixteen different microorganisms (summary); format: cell-based
Method: This experiment was performed to test 7-nitrocoumarin-3-carboxylic acid on sixteen (16) different types of microorganism, including one yeast species.
A mass of 10 mg of the indicator was dissolved in 4 ml of hot, distilled water and this solution was then added to 96 ml of Trypticase Soy broth. The resultant mixture was sterile-filtered.
All the microorganisms were grown for 24 hours in Trypticase Soy broth at 35° C. Each culture was then diluted 1,000-fold in Trypticase Soy broth and then serial 10-fold dilutions were made in more Trypticase Soy broth until the test aliquot contained no more microbial cells.
The resultant dilutions ranged from 10^−3 to 10^−13.
Fifty microliters of each dilution plus 50 μl of Trypticase Soy broth were added to wells of a microtiter plate with or without 7-nitrocoumarin-3-carboxylic acid.
The plates were read (T zero) and then incubated at 35° C. before being read again after 24 hours. Two different readings were made at each time point: […]
of the fluorescence (excitation at 365 nm and emission at 440 nm), using a Biolite F1 2001 fluorometer (Labtech International Limited), for wells containing 7-nitrocoumarin-3-carboxylic acid.
In order to check the correlation between growth and the fluorescence results, the contents of each well were seeded on Columbia agar supplemented with sheep blood.

[4] = test system: Shigella sonnei; experiment: Growth of wild Enterobacteriaceae strain in Mueller-Hinton broth (optical density); format: cell-based; settings: 0.17 mmol/l
Method: as §1, §2
(§3) This experiment was designed to investigate whether or not it would be possible to detect Enterobacteriaceae other than E. coli using 7-nitrocoumarin-3-carboxylic acid. The conditions for this experiment were similar to those described for the first experiment (section A).
(§4) Five wild strains belonging to the species Citrobacter diversus, Enterobacter agglomerans, Hafnia alvei, Morganella morganii and Shigella sonnei were tested

[5] = test system: Hafnia alvei; experiment: as above; format: cell-based; settings: 0.17 mmol/l
Method: as §1, §2, §3, §4

Question: Which results are given for `O=C(O)c1cc2ccc([N+](=O)[O-])cc2oc1=O` [7-nitrocoumarin-3-carboxylic acid]?
Answer: Reduction to give a fluorescent signal (in words) [1]: All were capable of reducing; Fluorescent signal ([2]; 0.005 mmol/l, 0 min): 0; Fluorescent signal ([2]; 0.005 mmol/l, 30 min): −134; Fluorescent signal ([2]; 0.005 mmol/l, 60 min): −164; Fluorescent signal ([2]; 0.005 mmol/l, 90 min): −122; Fluorescent signal ([2]; 0.005 mmol/l, 120 min): −94; Fluorescent signal ([2]; 0.005 mmol/l, 150 min): −9; Fluorescent signal ([2]; 0.005 mmol/l, 180 min): 406; Fluorescent signal ([2]; 0.005 mmol/l, 210 min): 1307; Fluorescent signal ([2]; 0.005 mmol/l, 240 min): 2466; Fluorescent signal ([2]; 0.013 mmol/l, 0 min): 0; Fluorescent signal ([2]; 0.013 mmol/l, 30 min): −113; Fluorescent signal ([2]; 0.013 mmol/l, 60 min): −141; Fluorescent signal ([2]; 0.013 mmol/l, 90 min): −76; Fluorescent signal ([2]; 0.013 mmol/l, 120 min): −22; Fluorescent signal ([2]; 0.013 mmol/l, 150 min): 174; Fluorescent signal ([2]; 0.013 mmol/l, 180 min): 1068; Fluorescent signal ([2]; 0.013 mmol/l, 210 min): 3073; Fluorescent signal ([2]; 0.013 mmol/l, 240 min): 5902; Fluorescent signal ([2]; 0.026 mmol/l, 0 min): 0; Fluorescent signal ([2]; 0.026 mmol/l, 30 min): −91; Fluorescent signal ([2]; 0.026 mmol/l, 60 min): −110; Fluorescent signal ([2]; 0.026 mmol/l, 90 min): −39; Fluorescent signal ([2]; 0.026 mmol/l, 120 min): 71; Fluorescent signal ([2]; 0.026 mmol/l, 150 min): 467; Fluorescent signal ([2]; 0.026 mmol/l, 180 min): 2311; Fluorescent signal ([2]; 0.026 mmol/l, 210 min): 6028; Fluorescent signal ([2]; 0.026 mmol/l, 240 min): 11387; Fluorescent signal ([2]; 0.052 mmol/l, 0 min): 0; Fluorescent signal ([2]; 0.052 mmol/l, 30 min): −83; Fluorescent signal ([2]; 0.052 mmol/l, 60 min): −76; Fluorescent signal ([2]; 0.052 mmol/l, 90 min): 33; Fluorescent signal ([2]; 0.052 mmol/l, 120 min): 241; Fluorescent signal ([2]; 0.052 mmol/l, 150 min): 861; Fluorescent signal ([2]; 0.052 mmol/l, 180 min): 4004; Fluorescent signal ([2]; 0.052 mmol/l, 210 min): 10584; Fluorescent signal ([2]; 0.052 mmol/l, 240 min): 19530; Fluorescent signal relative to that given by any of the other substrates ([2]; 0.105 mmol/l): more than twice as high; Fluorescent signal ([2]; 0.105 mmol/l, 0 min): 0; Fluorescent signal ([2]; 0.105 mmol/l, 30 min): −67; Fluorescent signal ([2]; 0.105 mmol/l, 60 min): 4; Fluorescent signal ([2]; 0.105 mmol/l, 90 min): 181; Fluorescent signal ([2]; 0.105 mmol/l, 120 min): 586; Fluorescent signal ([2]; 0.105 mmol/l, 150 min): 1694; Fluorescent signal ([2]; 0.105 mmol/l, 180 min): 6724; Fluorescent signal ([2]; 0.105 mmol/l, 210 min): 17495; Fluorescent signal ([2]; 0.105 mmol/l, 240 min): 31314; Extent of reduction of the substrate (in words) ([2]; 0.105 mmol/l, end of the four-hour assay): reduced to a far greater extent than any of the other nitrocoumarins; Fluorescent signal ([2]; 0.157 mmol/l, 0 min): 0; Fluorescent signal ([2]; 0.157 mmol/l, 30 min): −74; Fluorescent signal ([2]; 0.157 mmol/l, 60 min): 48; Fluorescent signal ([2]; 0.157 mmol/l, 90 min): 280; Fluorescent signal ([2]; 0.157 mmol/l, 120 min): 811; Fluorescent signal ([2]; 0.157 mmol/l, 150 min): 2231; Fluorescent signal ([2]; 0.157 mmol/l, 180 min): 8264; Fluorescent signal ([2]; 0.157 mmol/l, 210 min): 21022; Fluorescent signal ([2]; 0.157 mmol/l, 240 min): 36517; Fluorescent signal ([2]; 0.210 mmol/l, 0 min): 0; Fluorescent signal ([2]; 0.210 mmol/l, 30 min): −6; Fluorescent signal ([2]; 0.210 mmol/l, 60 min): 88; Fluorescent signal ([2]; 0.210 mmol/l, 90 min): 354; Fluorescent signal ([2]; 0.210 mmol/l, 120 min): 979; Fluorescent signal ([2]; 0.210 mmol/l, 150 min): 2588; Fluorescent signal ([2]; 0.210 mmol/l, 180 min): 9000; Fluorescent signal ([2]; 0.210 mmol/l, 210 min): 21589; Fluorescent signal ([2]; 0.210 mmol/l, 240 min): 37823; Fluorescent signal ([2]; 0.262 mmol/l, 0 min): 0; Fluorescent signal ([2]; 0.262 mmol/l, 30 min): 3; Fluorescent signal ([2]; 0.262 mmol/l, 60 min): 131; Fluorescent signal ([2]; 0.262 mmol/l, 90 min): 446; Fluorescent signal ([2]; 0.262 mmol/l, 120 min): 1190; Fluorescent signal ([2]; 0.262 mmol/l, 150 min): 3037; Fluorescent signal ([2]; 0.262 mmol/l, 180 min): 9721; Fluorescent signal ([2]; 0.262 mmol/l, 210 min): 22066; Fluorescent signal ([2]; 0.262 mmol/l, 240 min): 37949; Correlation of fluorescence readings with microbial growth (in words) ([3]; 24 hours, Trypticase Soy broth): correlate closely with microbial growth patterns for all the species tested; Sensitivity of the assay (in words) ([3]; limiting dilution): capable of detecting a single viable cell; Optical density (690 nm) ([4]; 0 min): 0.000; Optical density (690 nm) ([4]; 30 min): −0.001; Optical density (690 nm) ([4]; 60 min): 0.000; Optical density (690 nm) ([4]; 90 min): 0.002; Optical density (690 nm) ([4]; 120 min): 0.013; Optical density (690 nm) ([4]; 150 min): 0.042; Optical density (690 nm) ([4]; 180 min): 0.097; Optical density (690 nm) ([4]; 210 min): 0.159; Optical density (690 nm) ([4]; 240 min): 0.246; Optical density (690 nm) ([5]; 0 min): 0.000; Optical density (690 nm) ([5]; 30 min): −0.001; Optical density (690 nm) ([5]; 60 min): 0.004; Optical density (690 nm) ([5]; 90 min): 0.009; Optical density (690 nm) ([5]; 120 min): 0.016; Optical density (690 nm) ([5]; 150 min): 0.034; Optical density (690 nm) ([5]; 180 min): 0.092; Optical density (690 nm) ([5]; 210 min): 0.149; Optical density (690 nm) ([5]; 240 min): 0.246
